Measured values: ChEMBL document CHEMBL4825706, “Synthesis and biological evaluation of selenogefitinib for reducing bleomycin-induced pulmonary fibrosis” (Bioorg Med Chem Lett, 2021)
The source made the active and inactive calls. No cut-off for these calls is given here.

How the values were obtained:
Mus musculus [1] = assay: Antifibrotic activity in C57BL mouse model of BLM-induced lung fibrosis assessed as reduction in collagen deposition in the lung at 60 mg/kg by masson staining method; assay type: functional, organism-based
Mus musculus [2] = assay: Antifibrotic activity in C57BL mouse model of BLM-induced lung fibrosis assessed as reduction in alveolar wall thickness by measuring lung coefficient at 60 mg/kg by hematoxylin and eosin staining based assay (reference value: 12.89 +/- 2.52 g); assay type: functional
Mus musculus [3] = assay: Antifibrotic activity in C57BL mouse model of BLM-induced lung fibrosis assessed as MDA content at 60 mg/kg measured after 14 days (reference value: 9.93 +/- 1.41 nmol/ml); assay type: functional; details: time 14 day
Mus musculus [4] = assay: Antifibrotic activity in C57BL mouse model of BLM-induced lung fibrosis assessed as HYP level at 60 mg/kg (reference value: 5.31 +/- 0.79 ug/mg); assay type: functional
Mus musculus [5] = assay: Antifibrotic activity in C57BL mouse model of BLM-induced lung fibrosis assessed as IL-6 level in blood at 60 mg/kg measured after 14 days by flow cytometry (reference value: 2.36 +/- 0.16 pg/ml); assay type: functional; details: time 14 day
Mus musculus [6] = assay: Antifibrotic activity in C57BL mouse model of BLM-induced lung fibrosis assessed as TNF-alpha level in blood at 60 mg/kg measured after 14 days by flow cytometry (reference value: 3.12 +/- 0.11 pg/ml); assay type: functional; details: time 14 day
Mus musculus [7] = assay: Antifibrotic activity in C57BL mouse model of BLM-induced lung fibrosis assessed as IL-4 level in blood at 60 mg/kg measured after 14 days by flow cytometry (reference value: 2.72 +/- 0.14 pg/ml); assay type: functional; details: time 14 day
[8] = biological target: Epidermal growth factor receptor (Homo sapiens, UniProt P00533); assay: Inhibition of EGFR (unknown origin) by ADP-Glo kinase assay
Mus musculus [9] = assay: Antifibrotic activity in C57BL mouse model of BLM-induced lung fibrosis assessed as reduction in infiltration of inflammatory cells at 60 mg/kg by hematoxylin and eosin staining based assay; assay type: functional, organism-based
[10] = Cytotoxicity against human HBE cells assessed as inhibition of cell growth measured by CCK8 assay; assay type: ADME, cell-based
L02 = assay: Cytotoxicity against human L02 cells assessed as inhibition of cell growth measured by CCK8 assay; assay type: functional, cell-based

Epidermal growth factor receptor, sequence (P00533 whole entry): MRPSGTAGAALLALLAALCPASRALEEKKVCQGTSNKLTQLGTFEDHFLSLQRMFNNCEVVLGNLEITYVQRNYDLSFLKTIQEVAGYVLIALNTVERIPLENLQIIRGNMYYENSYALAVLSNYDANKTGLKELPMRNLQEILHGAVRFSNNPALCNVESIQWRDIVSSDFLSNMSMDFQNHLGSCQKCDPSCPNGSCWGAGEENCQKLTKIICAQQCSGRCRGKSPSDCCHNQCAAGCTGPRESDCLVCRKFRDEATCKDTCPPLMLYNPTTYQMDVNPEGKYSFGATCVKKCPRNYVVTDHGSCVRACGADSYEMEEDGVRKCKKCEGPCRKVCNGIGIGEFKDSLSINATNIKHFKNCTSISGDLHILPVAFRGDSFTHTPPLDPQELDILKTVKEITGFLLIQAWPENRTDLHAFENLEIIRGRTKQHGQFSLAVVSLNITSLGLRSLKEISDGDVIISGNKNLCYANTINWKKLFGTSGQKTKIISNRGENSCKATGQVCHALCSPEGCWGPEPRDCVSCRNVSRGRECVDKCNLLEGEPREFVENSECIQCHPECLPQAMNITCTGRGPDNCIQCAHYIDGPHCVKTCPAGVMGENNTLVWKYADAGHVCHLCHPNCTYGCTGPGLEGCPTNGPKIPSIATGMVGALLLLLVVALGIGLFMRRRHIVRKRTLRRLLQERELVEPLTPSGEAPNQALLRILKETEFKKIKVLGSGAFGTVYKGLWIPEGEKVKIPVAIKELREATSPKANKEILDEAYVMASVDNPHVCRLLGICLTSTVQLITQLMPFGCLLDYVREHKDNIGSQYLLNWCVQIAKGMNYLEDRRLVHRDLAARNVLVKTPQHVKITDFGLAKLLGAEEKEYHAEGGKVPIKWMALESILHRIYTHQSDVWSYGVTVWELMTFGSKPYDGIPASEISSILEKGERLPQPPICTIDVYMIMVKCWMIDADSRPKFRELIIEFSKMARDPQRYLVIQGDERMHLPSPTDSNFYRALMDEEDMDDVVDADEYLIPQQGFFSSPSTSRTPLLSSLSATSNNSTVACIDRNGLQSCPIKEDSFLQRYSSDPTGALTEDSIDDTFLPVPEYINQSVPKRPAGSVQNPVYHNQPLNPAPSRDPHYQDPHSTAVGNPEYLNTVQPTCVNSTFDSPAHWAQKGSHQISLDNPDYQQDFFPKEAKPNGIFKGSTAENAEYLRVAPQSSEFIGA

Row | IC50 [8] [µM] | Structure (SMILES) | Activity (Mus musculus [1]) | Activity (Mus musculus [2]) [g] | Activity (Mus musculus [3]) [nmol/mL] | Activity (Mus musculus [4]) [µg/mg] | Activity (Mus musculus [5]) [pg/mL] | Activity (Mus musculus [6]) [pg/mL] | Activity (Mus musculus [7]) [pg/mL] | Activity (Mus musculus [9]) | IC50 [10] [µM] | IC50 (L02) [µM]
1 |  | COc1cc2ncnc(Nc3ccc(F)c(Cl)c3)c2cc1OCCCN1CCOCC1 [GEFITINIB] | Active | 9.7 | 8.92 | 3.39 | 1.77 | 2.39 | 2.17 |  |  | 
2 | 0.0253 | COc1cc2ncnc(Nc3ccc(F)c(Cl)c3)c2cc1OCCCN1CC[Se]CC1 | Active | 7.56 | 6.13 | 3.01 | 1 | 1.56 | 1.72 | Active | 21.8 | 13.8
